Test results as given in US10336697B2, “Spiro[cyclobutane-1,3′-indolin]-2′-one derivatives as bromodomain inhibitors” (Orion Corporation, priority 2015, dated 2019).

Biological target: Bet BRD4 full length bromo-domain protein (Homo sapiens, UniProt O60885)
Test: Bet bromodomain TR-FRET assay (displacement of acetyl histone peptide)
Assay type: binding
Conditions: Bet BRD4 full length bromodomain protein, 300 nM acetyl histone peptide substrate, read-out: IC50

**Q.** How did the IC50 turn out when `O=C1CCC(Oc2cc(NS(=O)(=O)c3ccc(Cl)cc3F)cc3c2NC(=O)C32CCC2)CC1` [Compound 176, 4-chloro-2-fluoro-N-(2′-oxo-7′-((4-oxocyclohexyl)oxy)spiro[cyclobutane-1,3′-indolin]-5′-yl)benzenesulfonamide] was run?
**A.** < 600 nM

**Q.** For `COc1ccccc1S(=O)(=O)Nc1cc(C(C)c2nccs2)c2c(c1)C1(CCC1)C(=O)N2` (stereo not shown) [Compound 177, 2-Methoxy-N-(2′-oxo-7′-(1-(thiazol-2-yl)ethyl)spiro[cyclobutane-1,3′-indolin]-5′-yl)benzenesulfonamide], which IC50 is on record?
**A.** < 600 nM

**Q.** Which IC50 does the source give for `COc1ccccc1S(=O)(=O)Nc1cc(OC2CCN(C)CC2)c2c(c1)C1(CCC1)C(=O)N2` [Compound-127, 2-methoxy-N-(7′-((1-methylpiperidin-4-yl)oxy)-2′-oxospiro[cyclobutane-1,3′-indolin]-5′-yl)benzenesulfonamide] here?
**A.** < 600 nM

**Q.** For `COc1ccccc1S(C)(=O)=Nc1cc([N+](=O)[O-])c2c(c1)C1(CCC1)C(=O)N2` (stereo not shown) [Compound-181, 5′-(((2-Methoxyphenyl)(methyl)(oxo)-l6-sulfanylidene)amino)-7′-nitrospiro[cyclobutane-1,3′-indolin]-2′-one], which IC50 is on record?
**A.** > 1000 nM

**Q.** `COc1ccccc1S(C)(=O)=Nc1cc(N)c2c(c1)C1(CCC1)C(=O)N2` (stereo not shown) [Compound-182, 7′-Amino-5′-(((2-methoxyphenyl)(methyl)(oxo)-l6-sulfanylidene)amino)spiro[cyclobutane-1,3′-indolin]-2′-one] was tested. Which IC50 did it give?
**A.** > 1000 nM

**Q.** With `COc1ccccc1S(C)(=O)=Nc1cc(NC2CCN(C)CC2)c2c(c1)C1(CCC1)C(=O)N2` (stereo not shown) [Compound-183, 5′-(((2-Methoxyphenyl)(methyl)(oxo)-l6-sulfanylidene)amino)-7′-((1-methylpiperidin-4-yl)amino)spiro[cyclobutane-1,3′-indolin]-2′-one] as the compound, how does the IC50 read?
**A.** < 600 nM

**Q.** Which IC50 does the source give for `CC(C)Oc1ccccc1S(=O)(=O)Nc1cc(OC2CCN(C)CC2)c2c(c1)C1(CCC1)C(=O)N2` [Compound-184, 2-Isopropoxy-N-(7′-((1-methylpiperidin-4-yl)oxy)-2′-oxospiro[cyclobutane-1,3′-indolin]-5′-yl)benzenesulfonamide] here?
**A.** < 600 nM

**Q.** For `COc1cccc(F)c1S(=O)(=O)Nc1cc(OC2CCN(C)CC2)c2c(c1)C1(CCC1)C(=O)N2` [Compound-185, 2-Fluoro-6-methoxy-N-(7′-((1-methylpiperidin-4-yl)oxy)-2′-oxospiro[cyclobutane-1,3′-indolin]-5′-yl)benzenesulfonamide], which IC50 is on record?
**A.** < 600 nM

**Q.** For `COc1cc(F)ccc1S(=O)(=O)Nc1cc(OC2CCN(C)CC2)c2c(c1)C1(CCC1)C(=O)N2` [Compound-189, 4-Fluoro-2-methoxy-N-(7′-((1-methylpiperidin-4-yl)oxy)-2′-oxospiro[cyclobutane-1.3′-indolin]-5′-yl)benzenesulfonamide], which IC50 is on record?
**A.** < 600 nM

**Q.** With `COc1ccccc1S(=O)(=O)Nc1cc(OCC2CN(C)C2)c2c(c1)C1(CCC1)C(=O)N2` [Compound-190, 2-Methoxy-N-(7′-((1-methylazetidin-3-yl)methoxy)-2′-oxospiro [cyclobutane-1,3′-indolin]-5′-yl)benzenesulfonamide] as the compound, how does the IC50 read?
**A.** < 600 nM

**Q.** How did the IC50 turn out when `O=C1Nc2c(OC3CCNCC3)cc(NS(=O)(=O)c3ccc(Cl)cc3F)cc2C12CCC2` [Compound-197, 4-Chloro-2-fluoro-N-(2′-oxo-7′-(piperidin-4-yloxy)spiro-[cyclobutane-1,3′-indolin]-5′-yl)benzene sulfonamide] was run?
**A.** < 600 nM

**Q.** `COc1ccccc1S(=O)(=O)Nc1cc(OCC2COCCN2)c2c(c1)C1(CCC1)C(=O)N2` (stereo not shown) [Compound-203, 2-Methoxy-N-(7′-(morpholin-3-ylmethoxy)-2′-oxospiro[cyclobutane-1,3′-indolin]-5′-yl)benzenesulfonamide] was tested. Which IC50 did it give?
**A.** < 600 nM

**Q.** How did the IC50 turn out when `COc1ccccc1S(=O)(=O)Nc1cc(OC2CCC(O)CC2)c2c(c1)C1(CCC1)C(=O)N2` (stereo not shown) [Compound-208, N-(7′-((4-Hydroxycyclohexyl)oxy)-2′-oxospiro[cyclobutane-1,3′-indolin]-5′-yl)-2-methoxybenzenesulfonamide] was run?
**A.** < 600 nM

**Q.** Which IC50 does the source give for `COc1ccccc1S(=O)(=O)Nc1cc(OC2CCN(CCO)CC2)c2c(c1)C1(CCC1)C(=O)N2` [Compound-209, N-(7′-((1-(2-hydroxyethyl)piperidin-4-yl)oxy)-2′-oxospiro[cyclobutane-1,3′-indolin]-5′-yl)-2-methoxybenzenesulfonamide] here?
**A.** < 600 nM

**Q.** How did the IC50 turn out when `CS(=O)(=O)N1CCC(Oc2cc(NS(=O)(=O)c3ccc(Cl)cc3F)cc3c2NC(=O)C32CCC2)CC1` [Compound-210, 4-Chloro-2-fluoro-N-(7′-((1-(methylsulfonyl)piperidin-4-yl)-oxy)-2′-oxospiro[cyclobutane-1,3′-indolin]-5′-yl)benzenesulfonamide] was run?
**A.** < 600 nM

**Q.** For `CN1CCC(NC(=O)c2cc(NS(=O)(=O)c3ccc(Cl)cc3F)cc3c2NC(=O)C32CCC2)CC1` [Compound-211, 5′-((4-Chloro-2-fluorophenyl)sulfonamido)-N-(1-methylpiperidin-4-yl)-2′-oxospiro[cyclobutane-1,3′-indoline]-7′-carboxamide], which IC50 is on record?
**A.** 600 to 1000 nM

**Q.** `O=C1Nc2c(Oc3cc[nH]c(=O)c3)cc(NS(=O)(=O)c3ccc(Cl)cc3F)cc2C12CCC2` [Compound-212, 4-Chloro-2-fluoro-N-(2′-oxo-7′-((2-oxo-1,2-dihydropyridin-4-yl)oxy)spiro[cyclobutane-1,3′-indolin]-5′-yl)benzenesulfonamide] was tested. Which IC50 did it give?
**A.** < 600 nM

**Q.** `COc1ccccc1S(=O)(=O)Nc1cc(OC2CCN(C)CC2)c2c(c1Cl)C1(CCC1)C(=O)N2` [Compound-215, N-(4′-chloro-7′-((1-methylpiperidin-4-yl)oxy)-2′-oxospiro-[cyclobutane-1,3′-indolin]-5′-yl)-2-methoxybenzenesulfonamide] was tested. Which IC50 did it give?
**A.** 600 to 1000 nM

**Q.** For `COc1ccccc1S(=O)(=O)Nc1cc(B(O)O)c2c(c1)C1(CCC1)C(=O)N2` [Compound-217, (5′-((2-Methoxyphenyl)sulfonamido)-2′oxospiro[cyclobutane-1,3′-indolin]-7′-yl)boronic acid], which IC50 is on record?
**A.** > 1000 nM

**Q.** How did the IC50 turn out when `COc1ccccc1S(=O)(=O)Nc1cc(OC2CCN(C(C)=O)CC2)c2c(c1)C1(CCC1)C(=O)N2` [Compound-220] was run?
**A.** < 600 nM

**Q.** With `O=C(Nc1cc(Br)c2c(c1)C1(CCC1)C(=O)N2)c1cccnc1N1CCOCC1` [Compound-222, N-(7′-bromo-2′-oxospiro[cyclobutane-1,3′-indolin]-5′-yl)-2-morpholinonicotinamide] as the compound, how does the IC50 read?
**A.** > 1000 nM

**Q.** For `O=C(Nc1cc(C2CC2)c2c(c1)C1(CCC1)C(=O)N2)c1cccnc1N1CCOCC1` [Compound-223, N-(7′-cyclopropyl-2′oxospiro[cyclobutane-1,3′-indolin]-5′-yl)-2-morpholinonicotinamide], which IC50 is on record?
**A.** > 1000 nM

**Q.** For `CN1CCC(Oc2cc(NS(=O)(=O)c3ccccc3F)cc3c2NC(=O)C32CCC2)CC1` [compound 128], which IC50 is on record?
**A.** < 600 nM

**Q.** With `CCN(c1cc(OC2CCN(C)CC2)c2c(c1)C1(CCC1)C(=O)N2)S(=O)(=O)c1ccccc1OC` [compound 179, N-ethyl-2-methoxy-N-(7′-((1-methylpiperidin-4-yl)oxy)-2′-oxospiro[cyclobutane-1,3′-indolin]-5′-yl)benzenesulfonamide] as the compound, how does the IC50 read?
**A.** > 1000 nM

**Q.** `CN1CCC(Oc2cc(N(C)S(=O)(=O)c3ccc(F)cc3F)cc3c2NC(=O)C32CCC2)CC1` [compound 180, 2,4-Difluoro-N-methyl-N-(7′-((1-methylpiperidin-4-yl)oxy)-2′-oxospiro[cyclobutane-1,3′-indolin]-5′-yl)benzenesulfonamide] was tested. Which IC50 did it give?
**A.** < 600 nM

**Q.** For `COc1cccc(OC)c1S(=O)(=O)Nc1cc(OC2CCN(C)CC2)c2c(c1)C1(CCC1)C(=O)N2` [compound 186, 2,6-Dimethoxy-N-(7′-((1-methylpiperidin-4-yl)oxy)-2′-oxospiro[cyclobutane-1,3′-indolin]-5′-yl)benzenesulfonamide], which IC50 is on record?
**A.** > 1000 nM

**Q.** How did the IC50 turn out when `COc1ccc(S(=O)(=O)Nc2cc(OC3CCN(C)CC3)c3c(c2)C2(CCC2)C(=O)N3)c(OC)c1` [compound 187, 2,4-Dimethoxy-N-(7′-((1-methylpiperidin-4-yl)oxy)-2′-oxospiro[cyclobutane-1,3′-indolin]-5′-yl)benzenesulfonamide] was run?
**A.** < 600 nM

**Q.** With `COc1cc(Cl)ccc1S(=O)(=O)Nc1cc(OC2CCN(C)CC2)c2c(c1)C1(CCC1)C(=O)N2` [compound 188, 4-Chloro-2-methoxy-N-(7′-((1-methylpiperidin-4-yl)oxy)-2′-oxospiro[cyclobutane-1,3′-indolin]-5′-yl)benzenesulfonamide] as the compound, how does the IC50 read?
**A.** < 600 nM

**Q.** Which IC50 does the source give for `CN1CCOC(COc2cc(NS(=O)(=O)c3ccc(Cl)cc3F)cc3c2NC(=O)C32CCC2)C1` (stereo not shown) [compound 194, 4-Chloro-2-fluoro-N-(7′-((4-methylmorpholin-2-yl)methoxy)-2′-oxospiro[cyclobutane-1,3′-indolin]-5′-yl)benzenesulfonamide] here?
**A.** < 600 nM

**Q.** How did the IC50 turn out when `CC1CC(Oc2cc(NS(=O)(=O)c3ccc(Cl)cc3F)cc3c2NC(=O)C32CCC2)CC(C)N1C` (stereo not shown) [compound 195, 4-Chloro-2-fluoro-N-(2′-oxo-7′-((1,2,6-trimethylpiperidin-4-yl)oxy)spiro[cyclobutane-1,3′-indolin]-5′-yl)benzenesulfonamide] was run?
**A.** < 600 nM

**Q.** With `CCN(C)CCOc1cc(NS(=O)(=O)c2ccccc2OC)cc2c1NC(=O)C21CCC1` [compound 196, N-(7′-(2-(ethyl(methyl)amino)ethoxy)-2′-oxospiro[cyclobutane-1,3′-indolin]-5′-yl)-2-methoxybenzenesulfonamide] as the compound, how does the IC50 read?
**A.** < 600 nM

**Q.** With `O=C1Nc2c(OC3CCNCC3F)cc(NS(=O)(=O)c3ccc(Cl)cc3F)cc2C12CCC2` (stereo not shown) [compound 198, 4-Chloro-2-fluoro-N-(7′-((3-fluoropiperidin-4-yl)oxy)-2′-oxospiro[cyclobutane-1,3′-indolin]-5′-yl)benzenesulfonamide] as the compound, how does the IC50 read?
**A.** < 600 nM

**Q.** How did the IC50 turn out when `COc1ccccc1S(=O)(=O)Nc1cc(OC2CCNCC2)c2c(c1)C1(CCC1)C(=O)N2` [compound 199, 2-Methoxy-N-(2′-oxo-7′-(piperidin-4-yloxy)spiro[cyclobutane-1,3′-indolin]-5′-yl)benzenesulfonamide] was run?
**A.** < 600 nM

**Q.** Which IC50 does the source give for `O=C1Nc2c(OC3CCCNC3)cc(NS(=O)(=O)c3ccc(Cl)cc3F)cc2C12CCC2` (stereo not shown) [compound 200, 4-Chloro-2-fluoro-N-(2′-oxo-7′-(piperidin-3-yloxy)spiro[cyclobutane-1,3′-indolin]-5′-yl)benzenesulfonamide] here?
**A.** < 600 nM
